# Test results reported in ChEMBL document CHEMBL1201862, “PubChem BioAssay data set” (2004).
#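 Briefly, cells in 96-well plates were exposed to five compound concentrations for 48 h, and endpoints were estimated by linear interpolation. The concentration for 50% growth inhibition is given as GI50.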 The source made the active and inactive calls. No stated cut-off is given here; in the data, active = GI50 up to about 1.1 µM and inactive = higher.
# Key:
# Assay in all cases: DTP human tumour cell line panel, 48 h
# [1] = tested on: SK-MEL-2
# [2] = tested on: SF-295
# [3] = tested on: UACC-257
# [4] = tested on: SN12C
# [5] = tested on: NCI-H23
# [6] = tested on: NCI/ADR-RES
# [7] = tested on: HOP-62
# [8] = tested on: MCF7
# [9] = tested on: DU-145
# [10] = tested on: SNB-19
# [11] = tested on: 786-0
# [12] = tested on: M14
# [13] = tested on: HOP-92
# [14] = tested on: UACC-62
# [15] = tested on: NCI-H522
# [16] = tested on: KM12
# [17] = tested on: HCT-116
# [18] = tested on: MOLT-4
# [19] = tested on: HCC 2998
# [20] = tested on: EKVX
Structure (SMILES),GI50 [1],GI50 [2],GI50 [3],GI50 [4],GI50 [5],GI50 [6],GI50 [7],GI50 [8],GI50 [9],GI50 [10],GI50 [11],GI50 [12],GI50 [13],GI50 [14],GI50 [15],GI50 [16],GI50 [17],GI50 [18],GI50 [19],GI50 [20]
O=C1Cc2c(-c3ccc(Cl)cc3)cc(-c3ccccc3)nc2-c2ccccc2N1,26.6 µM (inactive),6.38 µM (inactive),25.4 µM (inactive),3.71 µM (inactive),10.5 µM (inactive),6.19 µM (inactive),8.24 µM (inactive),9.16 µM (inactive),8.18 µM (inactive),1.87 µM (inactive),2.03 µM (inactive),11.6 µM (inactive),2.4 µM (inactive),11.9 µM (inactive),8.38 µM (inactive),9.25 µM (inactive),3.44 µM (inactive),9.53 µM (inactive),4.06 µM (inactive),10.5 µM (inactive)
COc1ccccc1CC(=O)C(O)(C(F)(F)F)C(F)(F)F,> 100 µM (inactive),> 100 µM (inactive),> 100 µM (inactive),> 100 µM (inactive),> 100 µM (inactive),> 100 µM (inactive),> 100 µM (inactive),> 100 µM (inactive),> 100 µM (inactive),> 100 µM (inactive),> 100 µM (inactive),> 100 µM (inactive),> 100 µM (inactive),> 100 µM (inactive),> 100 µM (inactive),> 100 µM (inactive),> 100 µM (inactive),> 100 µM (inactive),> 100 µM (inactive),> 100 µM (inactive)
C/C(=N/NC(=O)c1ccncc1)c1ccc(NC(=O)C(=O)Nn2c(S)nc3ccccc3c2=O)cc1,> 100 µM (inactive),> 100 µM (inactive),> 100 µM (inactive),> 100 µM (inactive),> 100 µM (inactive),> 100 µM (inactive),> 100 µM (inactive),> 100 µM (inactive),> 100 µM (inactive),> 100 µM (inactive),> 100 µM (inactive),> 100 µM (inactive),59 µM (inactive),> 100 µM (inactive),> 100 µM (inactive),> 100 µM (inactive),> 100 µM (inactive),> 100 µM (inactive),> 100 µM (inactive),72.8 µM (inactive)
COc1ccc(CCNC(=O)CCCCCO)cc1OC,> 100 µM (inactive),> 100 µM (inactive),> 100 µM (inactive),> 100 µM (inactive),> 100 µM (inactive),> 100 µM (inactive),> 100 µM (inactive),> 100 µM (inactive),> 100 µM (inactive),> 100 µM (inactive),> 100 µM (inactive),> 100 µM (inactive),> 100 µM (inactive),> 100 µM (inactive),> 100 µM (inactive),> 100 µM (inactive),> 100 µM (inactive),> 100 µM (inactive),> 100 µM (inactive),> 100 µM (inactive)
CN1C(NCCO)=NS(=O)(=O)c2ccccc21,> 100 µM (inactive),> 100 µM (inactive),> 100 µM (inactive),> 100 µM (inactive),> 100 µM (inactive),> 100 µM (inactive),> 100 µM (inactive),> 100 µM (inactive),> 100 µM (inactive),> 100 µM (inactive),> 100 µM (inactive),> 100 µM (inactive),> 100 µM (inactive),> 100 µM (inactive),> 100 µM (inactive),> 100 µM (inactive),> 100 µM (inactive),> 100 µM (inactive),> 100 µM (inactive),> 100 µM (inactive)
O=C1Sc2cc3ccccc3cc2C(=O)Sc2ccc(Br)cc21,4.56 µM (inactive),13.1 µM (inactive),5.81 µM (inactive),3.93 µM (inactive),8.47 µM (inactive),3.67 µM (inactive),6.21 µM (inactive),4.46 µM (inactive),4.84 µM (inactive),15.2 µM (inactive),2.07 µM (inactive),3.54 µM (inactive),7.29 µM (inactive),4.93 µM (inactive),1.82 µM (inactive),7.16 µM (inactive),5.45 µM (inactive),3.55 µM (inactive),4.57 µM (inactive),14.3 µM (inactive)
CCCCOC(=O)N[C@H]1CCc2cc(OC)c(OC)c(OC)c2-c2ccc(SC)c(=O)cc21,< 0.01 µM (active),< 0.01 µM (active),< 0.0286 µM (active),< 0.01 µM (active),< 0.01 µM (active),< 0.01 µM (active),< 0.01 µM (active),< 0.01 µM (active),< 0.01 µM (active),< 0.0153 µM (active),< 0.01 µM (active),< 0.01 µM (active),< 0.01 µM (active),< 0.01 µM (active),< 0.01 µM (active),< 0.01 µM (active),< 0.01 µM (active),< 0.01 µM (active),< 0.01 µM (active),16.3 µM (inactive)
